Experimental data reported in patent publication US7560466B2, “Methods of treating or preventing autoimmune diseases with 2,4-pyrimidinediamine compounds” (Rigel Pharmaceuticals, Inc., priority 2003, dated 2009).
Structures can show the parent of a compound that is named as a salt. Where two headings read alike, the source gives them in different places.

Tested on: cultured human mast cells (CHMC), IgE-induced degranulation
Assay: CHMC low cell density IgE activation: tryptase assay
Type: cell-based
Settings: CHMC low cell density
Method: Inhibition of degranulation was measured at both low and high cell density by quantifying the release of the granule specific factors tryptase, histamine and hexosaminidase. Inhibition of release and/or synthesis of lipid mediators was assessed by measuring the release of leukotriene LTC4 and inhibition of release and/or synthesis of cytokines was monitored by quantifying TNF-α, IL-6 and IL-13. Tryptase and hexosaminidase were quantified using fluorogenic substrates as described in their respective examples. […] The protocols of the various assays are provided below.
A second phase is performed to convert the expanded CD34-negative progenitor cells into differentiated mucosal mast cells. These mucosal cultured human mast cells (“CHMC”) are derived from CD34+ cells isolated from umbilical cord blood and treated to form a proliferated population of CD34-negative progenitor cells, as described above. […] Also, the cytokine composition of the medium was modified such that it contained SCF (200 ng/mL) and recombinant human IL-6 (200 ng/mL; Peprotech, Catalog No. 200-06 reconstituted to 100 ug/mL in sterile 10 mM acetic acid) (“CM/SCF/IL-6 medium”).
Pellet CHMC cells (980 rpm, 10 min) and resuspend in pre-warmed MT. Add 65 ul of cells to each 96-well plate. Depending on the degranulation activity for each particular CHMC donor, load 1000-1500 cells/well. Mix four times followed by a 1 hr incubation at 37° C. […] Stimulate cells by adding 25 ul of 6× anti-IgE solution to the appropriate plates. Add 25 ul MT to un-stimulated control wells. Mix twice following addition of the anti-IgE. Incubate at 37° C. for 30 minutes. […] Spin plates at 1000 rpm for 10 min to pellet cells. Transfer 25 ul of supernatant to a 96-well black bottom plate and add 100 ul of freshly diluted tryptase substrate solution to each well. Incubate plates at room temperature for 30 min.
In Table 1, all reported values are IC50s (in μM). […] In Table 1, all reported values are IC50s (in μM).

[1] = 3pt, read-out: LD Tryptase, CHMC, IgE, 3pt
[2] = 8pt, read-out: LD Tryptase, CHMC, IgE, 8pt

Row | IC50 [1] | IC50 [2] | Structure (SMILES)
1 | < 10 µM | < 10 µM | CC1(C)Oc2ccc(Nc3nc(Nc4ccc5c(cnn5CCCN5C(=O)CCC5=O)c4)ncc3F)cc2NC1=O [Compound 855, N4-(2,2-Dimethyl-3-oxo-4H-benz[1,4]oxazin-6-yl)-5-fluoro-N2-[1-[3-(N-succinimidopropyl)]indazol-5-yl]-2,4-pyrimidinediamine]
2 | < 10 µM | < 10 µM | C[C@@H]1Oc2ccc(Nc3nc(Nc4ccc5c(cnn5CCCN5C(=O)CCC5=O)c4)ncc3F)cc2NC1=O [Compound 856, (S)-5-Fluoro-N4-(2-methyl-3-oxo-2H,4H-benz[1,4]oxazin-6-yl)-N2-[1-[3-(N-succinimidopropyl)]indazol-5-yl]-2,4-pyrimidinediamine]
3 | < 10 µM | < 10 µM | CC1(C)Oc2ccc(Nc3nc(Nc4ccc5c(cnn5CCCN5C(=O)CCC5=O)c4)ncc3F)nc2NC1=O [Compound 857, N4-(2,2-Dimethyl-3-oxo-4H-5-pyrid[1,4]oxazin-6-yl)-5-fluoro-N2-[1-[3-(N-succinimidopropyl)]indazol-5-yl]-2,4-pyrimidinediamine]
4 | < 10 µM | < 10 µM | CC1(C)Oc2ccc(Nc3nc(Nc4ccc5c(cnn5CCCN5C(=O)CCCC5=O)c4)ncc3F)nc2NC1=O [Compound 862, N4-(2,2-Dimethyl-3-oxo-4H-5-pyrid[1,4]oxazin-6-yl)-N2-[1-[3-(2,6-dioxopiperidino]propyl)indazol-5-yl]-5-fluoro-2,4-pyrimidinediamine]
5 | < 10 µM | < 10 µM | CCOCCCn1ncc2cc(Nc3ncc(F)c(Nc4ccc5c(n4)NC(=O)C(C)(C)O5)n3)ccc21 [Compound 875, N4-(2,2-Dimethyl-3-oxo-4H-5-pyrid[1,4]oxazin-6-yl)-N2-[1-(3-ethoxypropyl)indazol-5-yl]-5-fluoro-2,4-pyrimidinediamine]
6 | < 10 µM | < 10 µM | Cn1c(=O)[nH]c2cc(Nc3ncc(F)c(Nc4ccc5c(n4)NC(=O)C(C)(C)O5)n3)ccc21 [Compound 908, N4-(2,2-Dimethyl-3-oxo-4H-5-pyrid[1,4]oxazin-6-yl)-N2-(2,3-dihydro-1-methyl-2-oxo-benzimidazol-5-yl)-5-fluoro-2,4-pyrimidinediamine]
7 | – | < 10 µM | CC1(C)Oc2ccc(Nc3nc(Nc4ccc5oncc5c4)ncc3F)nc2NC1=O [Compound 928, N2-(1,2-Benzisoxazol-5-yl)-N4-(2,2-dimethyl-3-oxo-4H-5-pyrido[1,4]oxazin-6-yl)-5-fluoro-2,4-pyrimidinediamine]
8 | < 10 µM | – | CCn1c(C)nc2cc(Nc3ncc(F)c(Nc4ccc5c(n4)NC(=O)C(C)(C)O5)n3)ccc21 [Compound 936, N4-(2,2-Dimethyl-3-oxo-4H-5-pyrido[1,4]oxazin-6-yl)-N2-(1-ethyl-2-methylbenzimidazol-5-yl)-5-fluoro-2,4-pyrimidinediamine]
9 | < 10 µM | < 10 µM | CC1(C)Oc2ccc(Nc3nc(Nc4ccc5c(c4)nc(C(F)(F)F)n5CCCO)ncc3F)nc2NC1=O [Compound 941, N4-(2,2-Dimethyl-3-oxo-4H-5-pyrido[1,4]oxazin-6-yl)-5-fluoro-N2-[1-(3-hydroxypropyl)-2-trifluoromethylbenzimidazol-5-yl]-2,4-pyrimidinediamine]
10 | < 10 µM | < 10 µM | C[C@@H]1Oc2ccc(Nc3nc(Nc4ccc5c(c4)nc(N4CCOCC4)n5C)ncc3F)cc2NC1=O [Compound 945, (S)-5-Fluoro-N2-[1-methyl-2-(4-morpholino)benzimidazol-5-yl]-N4-(2-methyl-3-oxo-2H,4H-benz[1,4]oxazin-6-yl)-2,4-pyrimidinediamine]
11 | < 10 µM | < 10 µM | Cn1c(N2CCOCC2)nc2cc(Nc3ncc(F)c(Nc4ccc5c(n4)NC(=O)C(C)(C)O5)n3)ccc21 [Compound 946, N4-(2,2-Dimethyl-3-oxo-4H-5-pyrido[1,4]oxazin-6-yl)-5-fluoro-N2-[1-methyl-2-(4-morpholino)benzimidazol-5-yl]-2,4-pyrimidinediamine]
12 | < 10 µM | < 10 µM | Cc1nc2cc(Nc3ncc(F)c(Nc4ccc5c(n4)NC(=O)C(C)(C)O5)n3)ccc2n1CCCO [Compound 951, N4-(2,2-Dimethyl-3-oxo-4H-5-pyrido[1,4]oxazin-6-yl)-5-fluoro-N2-[1-(3-hydroxypropyl)-2-methylbenzimidazol-5-yl]-2,4-pyrimidinediamine]
13 | < 10 µM | < 10 µM | CC(=O)NCCCn1c(C)nc2cc(Nc3ncc(F)c(Nc4ccc5c(n4)NC(=O)C(C)(C)O5)n3)ccc21 [Compound 953, N2-[1-[3-(N-Acetylamino)propyl]-2-methylbenzimidazol-5-yl]-N4-(2,2-Dimethyl-3-oxo-4H-5-pyrido[1,4]oxazin-6-yl)-5-fluoro-2,4-pyrimidinediamine]
14 | – | < 10 µM | Cn1c(CN2CCOCC2)nc2cc(Nc3ncc(F)c(Nc4ccc5c(c4)NC(=O)C(C)(C)O5)n3)ccc21 [Compound 956, N4-(2,2-Dimethyl-3-oxo-4H-benz[1,4]oxazin-6-yl)-5-fluoro-N2-[1-methyl-2-(4-morpholinomethyl)benzimidazol-5-yl]-2,4-pyrimidinediamine]
15 | < 10 µM | < 10 µM | C[C@@H]1Oc2ccc(Nc3nc(Nc4ccc5c(c4)nc(CN4CCOCC4)n5C)ncc3F)cc2NC1=O [Compound 957, (S)-5-Fluoro-N2-[1-methyl-2-(4-morpholinomethyl)benzimidazol-5-yl]-N4-(2-methyl-3-oxo-2H,4H-benz[1,4]oxazin-6-yl)--2,4-pyrimidinediamine]
16 | – | < 10 µM | Cn1c(CN2CCOCC2)nc2cc(Nc3ncc(F)c(Nc4ccc5c(n4)NC(=O)C(C)(C)O5)n3)ccc21 [Compound 958, N4-(2,2-Dimethyl-3-oxo-4H-5-pyrido[1,4]oxazin-6-yl)-5-fluoro-N2-[1-methyl-2-(4-morpholinomethyl)benzimidazol-5-yl]-2,4-pyrimidinediamine]
17 | < 10 µM | < 10 µM | Cc1nc2cc(Nc3ncc(F)c(Nc4ccc5c(n4)NC(=O)C(C)(C)O5)n3)ccc2n1CCCNS(C)(=O)=O [Compound 964, N4-(2,2-Dimethyl-3-oxo-4H-5-pyrido[1,4]oxazin-6-yl)-5-fluoro-N2-[2-methyl-1-[3-(N-methylsulfonylamino)propyl]benzimidazol-5-yl]-2,4-pyrimidinediamine]
18 | < 10 µM | < 10 µM | Cn1c(CS(C)(=O)=O)nc2cc(Nc3ncc(F)c(Nc4ccc5c(n4)NC(=O)C(C)(C)O5)n3)ccc21 [Compound 969, N4-(2,2-Dimethyl-3-oxo-4H-5-pyrido[1,4]oxazin-6-yl)-5-fluoro-N2-{1-methyl-2-[(methylsulfonyl)methyl]benzimidazol-5-yl}-2,4-pyrimidinediamine]
19 | < 10 µM | < 10 µM | CCN(CC)Cc1nc2cc(Nc3ncc(F)c(Nc4ccc5c(n4)NC(=O)C(C)(C)O5)n3)ccc2n1C [Compound 974, N2-[2-(N,N-Diethylaminomethyl)-1-methylbenzimidazol-5-yl]-N4-(2,2-dimethyl-3-oxo-4H-5-pyrido[1,4]oxazin-6-yl)-5-fluoro-2,4-pyrimidinediamine]

Row | Structure (SMILES) | IC50 [1] | IC50 [2]
20 | CNC(=O)COc1cccc(Nc2ncc(F)c(Nc3ccc4c(n3)NC(=O)C(C)(C)O4)n2)c1 [Compound 986, N4-(2,2-Dimethyl-3-oxo-4H-5-pyrid[1,4]oxazin-6-yl)-5-fluoro-N2-[3-(N-methylamino)carbonylmethyleneoxyphenyl]-2,4-pyrimidinediamine Hydrogen Chloride Salt] | < 10 µM | < 10 µM
